Experimental findings from a melting point compilation (Tetko et al.; mined from patent text by program, amines drawn as free bases though some values may be those of a salt) are described below.

Broadly, the melting point is the temperature of the solid-liquid transition. `CC(C)=NOCc1nc2c(N)nc3cccnc3c2n1CC(C)(C)O` gave a melting point of 198 to 200 °C.
The figure for `N#Cc1cscc1C#N` is 170 to 171 °C; for `COC(=O)c1scc(Cl)c1N` it is 62 to 64 °C.
Next, `Nc1c([N+](=O)[O-])sc2ccc(Br)cc12`: 282 to 284 °C.
Next, `CC(C)(C)CC(=O)N[C@H]1CC[C@H](CCN2CCN(c3nccc4c3CCO4)CC2)CC1`: 192 °C; `O=[N+]([O-])c1cccc(C=[N+]([O-])c2cccc(CO)c2)c1`: 177 to 179 °C.
`O=C(Nc1ccc(O)cc1)C(=O)N1CCC(Cc2ccccc2)CC1` returned a melting point of 167 to 169 °C.
Next, `CCOC(=O)N1C(=O)NC(=O)C12C(=O)N(Cc1ccc(Cl)c(Cl)c1)c1ccccc12` (centres undefined): 192 to 194 °C; `COc1cc(-c2nc(-n3c(C)ccc3C)sc2SCC2CCCCC2)c(OC)cc1C`: 117 to 118 °C; `CCOP(=O)(COc1ccc(-c2c3ccccc3cc3sc4ccccc4c23)cc1)OCC`: 129 to 130 °C.
The figure for `COc1ccccc1CSc1nc2cnccc2[nH]1` is 193 to 195 °C; for `COC(=O)c1ccc(C#CC(=O)c2ccc3c(c2)C(C)(C)CCC3(C)C)cc1` it is 113 to 114 °C; for `CCCCCCCCc1ccc(C(=O)CCCCC(=O)O)cc1` it is 96 to 97 °C.
Next, `CC1(C)CCC(C)(C)c2cc(-c3cc(-c4ccc(C(=O)O)cn4)ccc3-c3ccccc3)ccc21`: 105 to 107 °C; `N#Cc1ccc(C=CCCC(=O)O)cc1`: 154 to 156 °C; `CCc1nc2c(N)nc3cc(CCC(=O)N(C)C)ccc3c2n1CC1CCOCC1`: 219 to 220 °C.
In turn, `CC(OC(=O)OCC(=O)N(C)C)OC(=C1C(=O)N(C(N)=O)c2cc(Cl)c(F)cc21)c1cccs1` (centres undefined) returned a melting point of 194 to 196 °C.
In the case of `NC(=O)[C@@H]1[C@H](NC(=O)/C(=N\OCC(=O)OCc2ccc([N+](=O)[O-])cc2)c2csc(NC(=O)CCl)n2)C(=O)N1OCC(=O)OCc1ccc([N+](=O)[O-])cc1`, the melting point was in the range of 147 to 153 °C.
For `O=C1N=C(N2CCOCC2)SC1=Cc1cc(-c2ccccc2)cc(-c2ccc(O)c(C34CC5CC(CC(C5)C3)C4)c2)c1`, the melting point fell in the range of 315 to 320 °C.
The figure for `CCCCN(Cc1ccc(-c2ccccc2-c2nnn[nH]2)cc1)c1ncncc1C(=O)OCC(=O)OC` is 65 to 80 °C; for `CC(=O)Nc1ccc(C(=O)N(C)Cc2cccc(-c3ccc(CC4SC(=O)NC4=O)cc3)c2)cc1` (centres undefined) it is 207 °C; for `COc1ccc2ccc(NC(=O)c3c[nH]c4c3C(=O)CCC4)nc2n1` it is 173 to 181 °C.
The figure for `Cc1cc(=O)c(O)c(C)o1` is 161 to 163 °C.
The figure for `CC(C)C(=O)N1CCN(c2ccc(NC(=O)c3ccccn3)cc2Cl)CC1` is 156 to 158 °C; for `Oc1ccc(-c2nn(C3CCCC3)c3c(F)cccc23)cc1` it is 131 °C; for `CC(=O)c1ccc(S(=O)(=O)NCCc2ccc(CC(=O)O)cc2)cc1` it is 193 to 194 °C.
`CNC(=O)[C@H](O)C(C)(C)C` returned a melting point of 60 to 62 °C.
Next, `CCCCCCCN(O)C(=O)N(C)C`: 30 to 31 °C; `O=C(O)CNCCOc1cccc(CCNS(=O)(=O)c2ccc(Cl)cc2)c1`: 205 to 207 °C.
Next, `CN(C)c1ccc2c(c1)CC(N1CCN(CCN3CCOC3=O)CC1)c1ccccc1S2` (centres undefined): 168 to 170 °C.
The figure for `COc1ccc(S(=O)(=O)C(Cc2ccccc2)C(=O)NO)cc1` (centres undefined) is 180 °C; for `CC(=O)Nc1ccc2c(c1)C(=O)C(Br)CCO2` (centres undefined) it is 157 to 160 °C; for `Cc1cc(CC2SCNC2=O)cc(C(C)(C)C)c1O` (centres undefined) it is 64 to 68 °C.
Compound `C=CC[C@H]1C(=O)N(S(C)(=O)=O)[C@H]2CCN(C(=O)OCc3ccccc3)[C@H]12` (relative stereo) displayed a melting point of 92 to 94 °C.
The figure for `COc1ccc(C2(CNC(=O)Nc3c(C(C)C)cccc3C(C)C)CCCC2)cc1` is 144 to 147 °C; for `O=c1[nH]c(=O)n(COc2ccccc2)cc1F` it is 150 °C.
`C[C@@H]1C(=O)C[C@H]2C[C@@H]1OO[C@@]2(C)/C=C\c1ccc(Cl)cc1Cl` yielded a melting point of 137 °C.
The figure for `CNC(=NCCSCc1cc(OC)ccn1)NC#N` is 121 to 122 °C; for `CCCCOC(=O)C(=O)Nc1cc(C#N)cc(NC(=O)C(=O)OCCCC)c1Cl` it is 118 to 120 °C; for `CN1C(C)(C)CC(O[Si](c2ccccc2)(c2ccccc2)c2ccccc2)CC1(C)C` it is 109 to 110 °C.
The figure for `Cc1cc(COc2ccc(S(=O)(=O)NC[C@@H](C(=O)NO)N3CCCCC3)cc2)c2ccccc2n1` is 150 °C; for `CC(C)(C)c1ccc(/C=N/OCCCOc2ccc(C(=O)O)c(NC(=O)c3ccccc3C(F)(F)F)c2)cc1` it is 121 to 122 °C; for `Cc1ccc(C23CCC(O)(CC2)CC3)cc1` it is 144 °C.
The figure for `Cc1nnc2c3c(c(Cl)nn12)C1CCC3CC1` is 178 to 179 °C; for `CCOC(=O)C=Cc1ccc(OC)nc1` it is 49 to 52 °C.
Compound `COc1cc2ccc(C=O)cc2cc1OC` gave a melting point of 87 to 88 °C.
Next, `Cc1ccccc1S(=O)(=O)NC(=O)c1ccc2c(c1)CCN2Cc1cccc([N+](=O)[O-])c1`: 159 to 163 °C; `COC(=O)c1cc(-c2ccccc2)c(=O)n2c1-c1sccc1S(=O)C2` (centres undefined): 183 to 186 °C; `O=C(O)c1csc(-c2ccc(Cl)cc2)n1`: 189 to 190 °C.
Compound `COc1ccc(-c2cc3ccc(C)cc3s2)cc1` yielded a melting point of 198 to 200 °C.
Turning to `COc1ccc(-c2cc(OC3SCC(O)C(O)C3O)ccn2)cc1` (centres undefined), the melting point was 150 to 154 °C.
Next, `CC1(O)CC2(C)C(=O)CCC2C2CCC3=CC(=O)CCC3(C)C21` (centres undefined): 150 to 151 °C; `O=C1Nc2ncccc2C12COc1cc3c(cc12)OCCO3` (centres undefined): over 250 °C.
Next, `CCOC(=O)C1=CC(c2cccc(C(F)(F)F)c2)=NN(C(=O)OCC)C1N1CCOCC1` (centres undefined): 128 to 129 °C.
Next, `CCOC(=O)[C@H](Cc1ccc(-c2c(OC)cc(CO)cc2OC)cc1)NC(=O)c1c(F)cccc1F`: 70 to 72 °C; `CSc1ccc(-c2n[nH]c(=S)cc2-c2ccc(F)cc2)cc1`: 219 °C.
For `C=CCN(c1nc(-c2cc3ccccc3[nH]c2=O)cs1)S(=O)(=O)c1ccccc1`, the melting point lay within 214 to 216 °C.
`c1cn(-c2nc(N3CCOCC3)nc(N3CCOCC3)n2)cn1` registered a melting point of 248 to 250 °C.
Consider `CC(C)[C@H](NC(=O)CCC(=O)c1ccc(F)cc1)C(=O)O`, for which the melting point was in the range of 103 to 105 °C.
The figure for `O=c1[nH]nccc1-c1ccccc1` is 216 to 219 °C.
Next, `CCOC(=O)c1cn(C)c2nc3cc(N4CC(N(C)C)C4)c(F)cc3cc2c1=O`: 224 °C.
As to `Cn1c(=O)nc(Sc2ccccc2)sc1=S`, the melting point lay in the range of 116 to 118 °C.
As to `CC(=O)Oc1ccccc1C(=O)Nc1cccc(F)c1`, the melting point fell in the range of 88.5 to 89.7 °C.
The figure for `CCN(CC)C(=O)/C(=C/C=C/c1cc2ccccc2[nH]1)OC` is 141 to 143 °C; for `Cc1ccc(CSc2nc(N)nc3nc[nH]c23)cc1` it is 240 to 242 °C.
The figure for `Cc1nc(-c2nn(-c3ccccc3)c(=O)cc2Oc2ccccc2)n[nH]1` is 245 to 247 °C.
Next, `Cc1nc(-n2[nH]c(C)c(Cc3ccc(Cl)cc3)c2=O)sc1C(=O)NCc1cccnc1`: 215 to 217 °C.
The compound `O=C1CC(c2cccc(-n3ccnc3)c2)=Nc2ccc(C#Cc3ccccc3)cc2N1` yielded a melting point of 193 to 196 °C.
Next, `O=C(NC1CN2CCC1CC2)c1cccc2nc(-c3ccc(Cl)cc3)oc12` (centres undefined): 181 to 183 °C; `Cc1ccc2c(N=[N+]=[N-])c(C(=O)O)cnc2n1`: 198 °C; `Cc1ccc(S(=O)(=O)N2CCC(S(=O)(=O)c3ccc(Cl)cc3)CC2)cc1`: 263 to 264 °C.
The figure for `CC(O)Cn1cnc2c1c(=O)n(CC1CCCC1)c(=O)n2CC1CCCC1` (centres undefined) is 139 °C; for `S=c1c(Br)coc2ccccc12` it is 41 °C; for `O=C(O)C1=C(c2ccccc2)c2cc(Cl)ccc2OC1CC(F)(F)F` (centres undefined) it is 226 to 227 °C.
Next, `CC(C)(C)OC(=O)NCC1=CC(c2ccccc2)Cc2c1ccc(O)c2O` (centres undefined): 175 to 177 °C; `Cc1ccc(S(=O)(=O)Nc2ccc(N)c([N+](=O)[O-])c2)cc1`: 146 °C.
The compound `CCCc1c(OCCCOc2ccc(C(=O)OCCCN(C)C)cc2F)ccc(C(C)=O)c1O` showed a melting point of 55 to 56 °C.
The figure for `O=C(NNS(=O)(=O)c1ccccc1)c1cccc2cccnc12` is 173 to 175 °C; for `CCCCCc1c(C)nc(C)c(CO)c1-c1ccccc1` it is 99 to 100 °C; for `O=C(O)CCCCCCCCCCC(=O)CCC(=O)O` it is 117 to 118 °C.
`O=C1c2ccccc2C(=O)c2c1ccc1[nH]c(=O)c(=O)[nH]c21` had a melting point of 245 to 246 °C.
Turning to `CCCc1nn(-c2ccc(C(F)(F)F)cn2)cc1CCCOc1ccc(OC)c(CC(=O)O)c1`, the melting point was 135 to 136 °C.
In the case of `N#Cc1c(Cl)c2cc(F)ccc2n(Cc2ccc(F)cc2)c1=O`, the melting point worked out at 236 °C.
The figure for `CC1CCc2ncc(C(N)=O)c(=O)n21` (centres undefined) is 191 °C; for `COC(=O)C1CC(=NO)c2c(Cl)cc(Cl)cc2N1` (centres undefined) it is 216 to 217 °C; for `O=C(O)c1cccc2c(Br)c(O)ccc12` it is over 225 °C.
Next, `COCc1cc(-c2nc(-c3cnc(N)c(C)c3)no2)ccc1-c1ccccc1F`: 162 to 164 °C; `COc1ccc(-c2nnc3c4ccccc4c(Nc4ccc(NC(=O)c5ccccn5)cc4)nn23)cc1`: 301 to 305 °C; `N#Cc1ccc(OCc2ccsc2)cc1OC(C(=O)O)c1ccccc1Cl` (racemic): 68 to 70 °C.
